Experimental data reported in US20190038209A1, “Using Spectral CT to Diagnose Thyroid Nodules” (BOARD OF REGENTS, THE UNIVERSITY OF TEXAS SYSTEM, priority 2016, published 2019).

Test: Spectral CT iodine-no-water map of rat thyroid before and after oral potassium iodide
Type: in vivo
Conditions: Fischer rats, 654 mg potassium iodide (500 mg iodine) oral gavage, 10 hours of uptake; baseline 1.5 mg I/mL
Procedure: Next, a Philips IQon Spectral CT scanner was used to obtain in vivo animal data. Three healthy female Fischer rats ranging from 150 g to 250 g mass were each anesthetized using 2.5% isoflurane and scanned in a supine position using the highest resolution settings for the IQon Spectral CT clinical scanner (0.625 mm slice thickness with 0.20 mm in-plane pixel resolution). The baseline endogenous iodine levels within the rat thyroid were measured using the iodine-no-water map and averaged 1.5 mg I/mL. These levels are similar to the baseline endogenous iodine levels found within healthy human thyroid tissue. The rats were then each given a bolus dose of 654 mg of potassium iodide (equivalent to 500 mg of iodine) that was dissolved in 1 mL of water and administered orally using a gavage. After 10 hours of uptake the rats were again anesthetized with 2.5% isoflurane and scanned a second time on the IQon Spectral CT using the same settings as before. The iodine levels within the rat thyroid now averaged 3.0 mg I/mL, or a 100% increase in iodine. […] Generally, a 500 mg dose of oral iodine given to humans can increase the level of organified iodine in the thyroid tissue (after a full 24 hours of uptake) from 1.5 mg I/mL to 5-10 mg I/ml depending on total thyroid volume. […]

SMILES: [I-].[K+] [potassium iodide]
- iodine levels within the rat thyroid (average): 3.0 mg I/mL
